{"source": "patent US20240197593A1", "about": "“CLEANSING COMPOSITION FOR FEMALE INTIMATE HYGIENE” (Conopco, Inc., d/b/a UNILEVER, priority 2021, published 2024)", "system": "human cadaver skin", "conditions": "normalized against time zero reading, average of 6 cells", "excerpt": "Electrical impedance is a proxy indicator of change in skin permeability.\nThe impedance reading at each cell at different time points was normalized against the time zero-minute reading of that cell. For each test formulation, the impedance reading of each time point is the average normalized value of the 6 repeat cells at that time point. Note: SDS=sodium dodecyl sulphate.", "note": "Read-outs that look alike come from different tables or passages of the source."}
{"smiles": "CCCCCCCCCCCCOS(=O)(=O)[O-].[Na+]", "note": "[SDS, sodium dodecyl sulphate]", "values": [{"measurement": "normalized electrical impedance", "setting": "time 0 minutes", "value": 1.00}, {"measurement": "normalized electrical impedance", "setting": "time 5 minutes", "value": 0.94}, {"measurement": "normalized electrical impedance", "setting": "time 10 minutes", "value": 0.90}, {"measurement": "normalized electrical impedance", "setting": "time 15 minutes", "value": 0.86}, {"measurement": "normalized electrical impedance", "setting": "time 30 minutes", "value": 0.76}]}
